Source: patent US9169254B2, “Spiroimidazolone derivative” (Chugai Seiyaku Kabushiki Kaisha, priority 2009, dated 2015)

These compounds were tested against T1, human PTH1 receptor (Homo sapiens, UniProt Q03431) (assay: In vitro cAMP signal activity in HKRK-B7 cells (LLC-PK1 cells overexpressing the human PTH1 receptor)). Details: HKRK-B7 cells; compound at 1×10^−3 M; cAMP produced as percentage of that produced by hPTH(1-34) at 100 nM.
T1 sequence (Q03431 27-593): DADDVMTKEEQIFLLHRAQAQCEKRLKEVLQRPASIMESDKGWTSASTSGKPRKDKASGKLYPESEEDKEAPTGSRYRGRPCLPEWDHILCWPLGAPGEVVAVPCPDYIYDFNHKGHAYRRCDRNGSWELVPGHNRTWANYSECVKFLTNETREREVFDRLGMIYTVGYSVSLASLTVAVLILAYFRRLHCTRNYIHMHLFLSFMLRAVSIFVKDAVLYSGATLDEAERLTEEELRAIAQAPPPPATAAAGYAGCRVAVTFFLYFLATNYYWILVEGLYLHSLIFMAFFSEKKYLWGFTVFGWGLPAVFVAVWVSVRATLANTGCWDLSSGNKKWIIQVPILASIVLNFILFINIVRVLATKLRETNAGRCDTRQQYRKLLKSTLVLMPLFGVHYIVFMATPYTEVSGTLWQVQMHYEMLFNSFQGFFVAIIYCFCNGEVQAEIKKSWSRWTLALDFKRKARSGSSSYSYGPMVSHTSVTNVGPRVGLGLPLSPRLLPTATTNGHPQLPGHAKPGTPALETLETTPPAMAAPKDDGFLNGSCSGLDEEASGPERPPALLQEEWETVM
Assay type: cell-based
`Cc1cc(C(=O)N2CCC(O)CC2)ccc1/C=C/S(=O)(=O)N1CCC2(CC1)N=C(c1cccc(OC(F)(F)F)c1)NC2=O` [Compound 230, 8-{(E)-2-[4-(4-hydroxy-piperidine-1-carbonyl)-2-methyl-phenyl]-ethenesulfonyl}-2-(3-trifluoromethoxy-phenyl)-1,3,8-triaza-spiro[4.5]dec-1-en-4-one] was tested, and the “cAMP production activity (%)” value was 66%. With `Cc1cc(N(C)C(N)=O)cc(C)c1CCS(=O)(=O)N1CCC2(CC1)N=C(C1C3CCC1CC3)NC2=O` (stereo not shown) [Compound 1056, 1-{4-[2-(2-bicyclo[2.2.1]hept-7-yl-4-oxo-1,3,8-triaza-spiro[4.5]dec-1-ene-8-sulfonyl)-ethyl]-3,5-dimethyl-phenyl}-1-methyl-urea] the “cAMP production activity (%)” value was 94%. In the case of `CN(CCO)S(=O)(=O)c1ccc(/C=C/S(=O)(=O)N2CCC3(CC2)N=C(C2CCCCC2)NC3=O)c(C(F)(F)F)c1` [Compound 495, 4-[(E)-2-(2-cyclohexyl-4-oxo-1,3,8-triaza-spiro[4.5]dec-1-ene-8-sulfonyl)-vinyl]-N-(2-hydroxy-ethyl)-N-methyl-3-trifluoromethyl-benzenesulfonamide], the “cAMP production activity (%)” value is reported as 21%. In the case of `Cc1cc(C(=O)N(C)C)ccc1CCS(=O)(=O)N1CCC2(CC1)N=C(/C=C/c1ccccc1)NC2=O` [Compound 142, 3,N,N-trimethyl-4-{2-[4-oxo-2-((E)-styryl)-1,3,8-triaza-spiro[4.5]dec-1-ene-8-sulfonyl]-ethyl}-benzamide], the “cAMP production activity (%)” value is reported as 63%. In the case of `Cc1cc(N(C)C(N)=O)cc(C)c1CCS(=O)(=O)N1CCC2(CC1)N=C(c1ccc3c(c1)OC(F)(F)O3)NC2=O` [Compound 1029, 1-(4-{2-[2-(2,2-difluoro-benzo[1,3]dioxol-5-yl)-4-oxo-1,3,8-triaza-spiro[4.5]dec-1-ene-8-sulfonyl]-ethyl}-3,5-dimethyl-phenyl)-1-methyl-urea], the “cAMP production activity (%)” value is reported as 104%. `Cc1cc(N(C)C(N)=O)cc(C)c1/C=C/S(=O)(=O)N1CCC2(CC1)N=C(CCCCCCCCCCCN)NC2=O` [Compound 1315, 1-(4-{(E)-2-[2-(11-Amino-undecyl)-4-oxo-1,3,8-triaza-spiro[4.5]dec-1-ene-8-sulfonyl]-vinyl}-3,5-dimethyl-phenyl)-1-methyl-urea] was tested, and the “cAMP production activity (%)” value was 76%. For `Cc1cc(C(=O)N2CCC(O)(CF)CC2)cc(C)c1/C=C/S(=O)(=O)N1CCC2(CC1)N=C(c1ccc(Cl)c(OCC(F)(F)C(F)(F)F)c1)NC2=O` [Compound 1270, 2-[4-chloro-3-(2,2,3,3,3-pentafluoro-propoxy)-phenyl]-8-{(E)-2-[4-(4-fluoromethyl-4-hydroxy-piperidine-1-carbonyl)-2,6-dimethyl-phenyl]-ethenesulfonyl}-1,3,8-triaza-spiro[4.5]dec-1-en-4-one], the “cAMP production activity (%)” value was 61%. In the case of `Cc1cc(C(=O)N(C)C)ccc1CCS(=O)(=O)N1CCC2(CC1)N=C(c1cccc(-c3c(C)noc3C)c1)NC2=O` [Compound 171, 4-(2-{2-[3-(3,5-Dimethyl-isoxazol-4-yl)-phenyl]-4-oxo-1,3,8-triaza-spiro[4.5]dec-1-ene-8-sulfonyl}-ethyl)-3,N,N-trimethyl-benzamide], the “cAMP production activity (%)” value is reported as 36%. For `Cc1cc(/C=C/S(=O)(=O)N2CCC3(CC2)N=C(c2cccc(OC(F)(F)F)c2)NC3=O)cc(C)c1OCCC(O)CO` (stereo not shown) [Compound 601, 8-{(E)-2-[4-(3,4-dihydroxy-butoxy)-3,5-dimethyl-phenyl]-ethenesulfonyl}-2-(3-trifluoromethoxy-phenyl)-1,3,8-triaza-spiro[4.5]dec-1-en-4-one], the “cAMP production activity (%)” value was 64%. For `COc1ccc(C2=NC3(CCN(S(=O)(=O)CCc4ccc(C(=O)N(C)C)cc4C)CC3)C(=O)N2)cc1C(F)(F)F` [Compound 144, 4-{2-[2-(4-methoxy-3-trifluoromethyl-phenyl)-4-oxo-1,3,8-triaza-spiro[4.5]dec-1-ene-8-sulfonyl]-ethyl}-3,N,N-trimethyl-benzamide], the “cAMP production activity (%)” value was 59%. For `CCCCCc1ccc(C2=NC3(CCN(S(=O)(=O)CCc4c(C)cc(N(C)C(N)=O)cc4C)CC3)C(=O)N2)cc1` [Compound 1342, 1-(3,5-dimethyl-4-{2-[4-oxo-2-(4-pentyl-phenyl)-1,3,8-triaza-spiro[4.5]dec-1-ene-8-sulfonyl]-ethyl}-phenyl)-1-methyl-urea], the “cAMP production activity (%)” value was 114%. With `Cc1cc(C(=O)N2CCC(O)(CF)CC2)cc(C)c1/C=C/S(=O)(=O)N1CCC2(CC1)N=C(c1ccc(C(F)(F)F)c(OC(C)(C)C(F)(F)F)c1)NC2=O` [Compound 1266, 8-{(E)-2-[4-(4-fluoromethyl-4-hydroxy-piperidine-1-carbonyl)-2,6-dimethyl-phenyl]-ethenesulfonyl}-2-[3-(2,2,2-trifluoro-1,1-dimethyl-ethoxy)-4-trifluoromethyl-phenyl]-1,3,8-triaza-spiro[4.5]dec-1-en-4-one] the “cAMP production activity (%)” value was 96%. With `CC(=O)Nc1ccc(CCS(=O)(=O)N2CCC3(CC2)N=C([C@H]2CC[C@H](CC(F)(F)F)CC2)NC3=O)c(C)c1` [Compound 922, N-[3-methyl-4-(2-{4-oxo-2-[4-(2,2,2-trifluoro-ethyl)-cyclohexyl]-1,3,8-triaza-spiro[4.5]dec-1-ene-8-sulfonyl}-ethyl)-phenyl]-acetamide] the “cAMP production activity (%)” value was 84%. For `COCc1cc(NC(C)=O)ccc1/C=C/S(=O)(=O)N1CCC2(CC1)N=C(C1CCC(C)CC1)NC2=O` (stereo not shown) [Compound 512, N-(3-methoxymethyl-4-{(E)-2-[2-(4-methyl-cyclohexyl)-4-oxo-1,3,8-triaza-spiro[4.5]dec-1-ene-8-sulfonyl]-vinyl}-phenyl)-acetamide], the “cAMP production activity (%)” value was 49%. `CCCc1cc2ccc(C3=NC4(CCN([S@TB18](=O)(=O)/C=C/c5c(C)cc(N(C)C(N)=O)cc5C)CC4)C(=O)N3)cc2o1` [Compound 1127, 1-(3,5-dimethyl-4-{(E)-2-[4-oxo-2-(2-propyl-benzofuran-6-yl)-1,3,8-triaza-spiro[4.5]dec-1-ene-8-sulfonyl]-vinyl}-phenyl)-1-methyl-urea] was tested, and the “cAMP production activity (%)” value was 91%. In the case of `Cc1cc2[nH]ccc2cc1CCS(=O)(=O)N1CCC2(CC1)N=C(C1CCCCC1)NC2=O` [Compound 837, 2-cyclohexyl-8-[2-(6-methyl-1H-indol-5-yl)-ethanesulfonyl]-1,3,8-triaza-spiro[4.5]dec-1-en-4-one], the “cAMP production activity (%)” value is reported as 66%. For `Cc1cc(C(=O)N2CCC(O)(CF)CC2)cc(C)c1/C=C/S(=O)(=O)N1CCC2(CC1)N=C(c1ccc(OCCCC(F)(F)C(F)(F)F)c(C(F)(F)F)c1)NC2=O` [Compound 1252, 8-{(E)-2-[4-(4-fluoromethyl-4-hydroxy-piperidine-1-carbonyl)-2,6-dimethyl-phenyl]-ethenesulfonyl}-2-[4-(4,4,5,5,5-pentafluoro-pentyloxy)-3-trifluoromethyl-phenyl]-1,3,8-triaza-spiro[4.5]dec-1-en-4-one], the “cAMP production activity (%)” value was 72%. In the case of `Cc1cc(C(=O)N2CCC(O)(CF)CC2)cc(C)c1/C=C/S(=O)(=O)N1CCC2(CC1)N=C(c1ccc(OC(C)(C)C(F)(F)F)c(C(F)(F)F)c1)NC2=O` [Compound 1265, 8-{(E)-2-[4-(4-fluoromethyl-4-hydroxy-piperidine-1-carbonyl)-2,6-dimethyl-phenyl]-ethenesulfonyl}-2-[4-(2,2,2-trifluoro-1,1-dimethyl-ethoxy)-3-trifluoromethyl-phenyl]-1,3,8-triaza-spiro[4.5]dec-1-en-4-one], the “cAMP production activity (%)” value is reported as 89%. In the case of `Cc1cc(C(=O)N2CCC(O)(CF)CC2)cc(C)c1/C=C/S(=O)(=O)N1CCC2(CC1)N=C(c1ccc(OCC(F)(F)F)c(C(F)(F)F)c1)NC2=O` [Compound 1248, 8-{(E)-2-[4-(4-fluoromethyl-4-hydroxy-piperidine-1-carbonyl)-2,6-dimethyl-phenyl]-ethenesulfonyl}-2-[4-(2,2,2-trifluoro-ethoxy)-3-trifluoromethyl-phenyl]-1,3,8-triaza-spiro[4.5]dec-1-en-4-one], the “cAMP production activity (%)” value is reported as 81%. `Cc1cc(C(=O)N2CCC(C)(O)CC2)cc(C)c1/C=C/S(=O)(=O)N1CCC2(CC1)N=C(c1cccc(S(F)(F)(F)(F)F)c1)NC2=O` [Compound 1190, 8-{(E)-2-[4-(4-hydroxy-4-methyl-piperidine-1-carbonyl)-2,6-dimethyl-phenyl]-ethenesulfonyl}-2-(3-pentafluorosulfanyl-phenyl)-1,3,8-triaza-spiro[4.5]dec-1-en-4-one] was tested, and the “cAMP production activity (%)” value was 108%. In the case of `CCCCCCCCCC1=NC2(CCN(S(=O)(=O)/C=C/c3ccc(N4C(=O)COCC4=O)cc3C)CC2)C(=O)N1` [Compound 538, 4-{3-methyl-4-[(E)-2-(2-nonyl-4-oxo-1,3,8-triaza-spiro[4.5]dec-1-ene-8-sulfonyl)-vinyl]-phenyl}-morpholine-3,5-dione], the “cAMP production activity (%)” value is reported as 133%.

Same assay, conditions: HKRK-B7 cells; compound at 1×10^−3 M; cAMP produced as percentage of that produced by hPTH(1-34) at 100 nM; 0.1 µM
`C#C[C@H]1CC[C@@H](C2=NC3(CCN(S(=O)(=O)CCc4ccc(NC(C)=O)cc4C)CC3)C(=O)N2)CC1` [Compound 1370, N-(4-{2-[2-(4-Ethynyl-cyclohexyl)-4-oxo-1,3,8-triaza-spiro[4.5]dec-1-ene-8-sulfonyl]-ethyl}-3-methyl-phenyl)-acetamide] was tested, and the “cAMP production activity (%)” value was 64%.
